Where no end group is shown, it is not given here. [ ]: non-standard residue; d: D form. pT = C[C@@H](OP(=O)(O)O)[C@H](N)C(=O)O; pS = N[C@@H](COP(=O)(O)O)C(=O)O
System: PBMC
Assay: IFNg/IL-5 dual ELISPOT after 14 day in vitro stimulation of PBMC with Tau peptides
Type: cell-based, human
Conditions: for PD % of Total Responders / PD Total SFC / PD Total Responders: PD donors; for % of total response / Average SFC per responder / Frequency of response / Total SFC per epitope: across all cohorts; for Total Responders / Total SFC: all three cohorts (PD, HC > 50, HC < 35); for HC < 35 Total Responders / HC < 35 Total SFC: healthy controls < 35 years old
From the text: It was investigated whether T cell responses against Tau were detectable in the PD and healthy control (HC) donors. To this end, a panel of overlapping peptides spanning through the entire sequence of the Tau protein was synthesized. Since it is known that the Tau protein is post-translationally modified (mainly by phosphorylation), in several instances phosphorylated peptides were also synthesized. In all, 55 non-modified 16-mers overlapping by 8 and 14 modified 16-mers were synthesized.
PD: n=16, peptides tested 14-16 times; HC above 50 years old denominated as age-matched: n=11 (9-11 times) and HC below 35 years old (HC Young): n=13 (10-13 times).
These peptides were tested utilizing the following assay strategy. Briefly, PBMC from each donor were stimulated in vitro for 14 days as described (Hinz, D., 2015) with pools of 10 to 16 peptides each. After 14 days, the T cell cultures were assayed with IFNg/IL-5 dual ELISPOT assays […]. Positive pools were deconvoluted at day 17 to identify the specific individual epitopes recognized.

[1] = healthy controls > 50 years old

Sequence | PD/HC > 50 Ratio of % Responders | PD/HC > 50 Ratio of Response | HC > 50 % of Total Responders [%] | HC > 50 Total SFC (HC > 50, dominant epitopes) [SFC] | PD % of Total Responders [%] | PD Total SFC (dominant epitopes) [SFC] | % of total response [%] | Average SFC per responder [SFC] | Frequency of response | Total SFC per epitope [SFC] | PD Total Responders | PD Total SFC [SFC] | Total Responders | Total SFC [SFC] | HC < 35 Total Responders | HC < 35 Total SFC [SFC] | HC > 50 Total Responders [1] | HC > 50 Total SFC [1] [SFC]
ADGKTKIATPRGAAPP (listed as Homo sapiens) [Tau 16-mer, start 145] | 1.0 | 0.5 | 50.0 | 3577 | 50.0 | 1633 | 1.5 | 868 | 11.3 | 5210 |  |  |  |  |  |  |  | 
TPPTREPKKVAVVRXP |  |  |  |  |  |  |  |  |  |  | 4 | 1813 | 7 | 2210 | 3 | 397 | 0 | 0
VDLSKVTSKCGSLGNI (listed as Homo sapiens) [Tau 16-mer, start 313] | 2.0 | 7.5 | 28.6 | 897 | 57.1 | 671 | 2.8 | 1409 | 13.2 | 9861 |  |  |  |  |  |  |  | 
DFKDRVQSKIGSLDNI (DFKDRVQSKIG[pS]LDNI; listed as Homo sapiens) [Tau 16-mer, start 345] | 0.7 | 0.6 | 60.0 | 4330 | 40.0 | 2397 | 1.9 | 1345 | 9.4 | 6727 | 2 | 2397 | 5 | 6727 | 0 | 0 | 3 | 4330
KTDHGAEIVYKSPVVS (listed as Homo sapiens) [Tau 16-mer, start 385] | 7.0 | 5.5 | 8.3 | 2437 | 58.3 | 13336 | 5.7 | 1679 | 22.6 | 20142 |  |  |  |  |  |  |  | 
VYKSPVVSGDTSPRHL (listed as Homo sapiens) [Tau 16-mer, start 393] | 1.0 | 2.6 | 42.9 | 3397 | 42.9 | 8951 | 3.8 | 1915 | 13.2 | 13408 |  |  |  |  |  |  |  | 
IDMVDSPQLATLADEV (listed as Homo sapiens) [Tau 16-mer, start 417] |  |  |  |  |  |  |  |  |  |  | 1 | 173 | 1 | 173 | 0 | 0 | 0 | 0
SLEDEAAGHVTQARMV (listed as Homo sapiens) [Tau 16-mer, start 113] | 2.0 | 11 | 33.3 | 640 | 66.7 | 7058 | 2.2 | 1283 | 11.3 | 7698 |  |  |  |  |  |  |  | 
IDMVDZPQLATLADEV |  |  |  |  |  |  |  |  |  |  | 1 | 197 | 5 | 1703 | 2 | 563 | 2 | 943
LATLADEVSASLAKQG (listed as Homo sapiens) [Tau 16-mer, start 425] | 0.3 | 0.5 | 75.0 | 2530 | 25.0 | 1263 | 1.1 | 948 | 7.5 | 3793 |  |  |  |  |  |  |  | 
KIGSLDNITHVPGGGN (listed as Homo sapiens) [Tau 16-mer, start 353] | inf | inf | 0.0 | 0 | 100.0 | 4070 | 1.2 | 4070 | 1.9 | 4070 |  |  |  |  |  |  |  | 
KVAVVRXPPKSPSSAK | 4.0 | 3.2 | 13.0 | 6987 | 52.2 | 22410 | 13.2 | 12014 | 43.4 | 46324 | 12 | 22410 | 23 | 46324 | 8 | 16927 | 3 | 6987
PAPKXPPSSGEPPKSG (PAPK[pT]PPSSGEPPKSG) | 1.8 | 2.4 | 19.2 | 6207 | 34.6 | 14672 | 12.2 | 1639 | 49.1 | 42624 | 9 | 14672 | 26 | 42624 | 12 | 21745 | 5 | 6207

Reference: patent publication US20200095296A1, “USE OF PEPTIDES AS BIOMARKERS IN THE DIAGNOSIS, CONFIRMATION AND TREATMENT OF A NEUROLOGICAL DISORDER AND TCR AND/OR HLA IMMUNOPROFILING IN NEURODEGENERATIVE DISEASE” (THE TRUSTEES OF COLUMBIA UNIVERSITY IN THE CITY OF NEW YORK, priority 2017, published 2020)
